Like-named read-outs stand apart in the source and are kept apart here.
Experiments:
Test in all cases: pre-emergence greenhouse test
Type in all cases: in vivo
[1] = test system: PANMI (Panicum milliaceum)
How it was run: (§1)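 Herbicide A and safener were formulated as 10% by weight suspension concentrates, herbicide B as commercial product, all diluted in water and sprayed onto soil just after sowing. Percent damage compared with untreated controls was recorded 8 and/or 20 DAT.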

[2] = test system: CCHEC (Cenchrus echinatus)
How it was run: as §1

[3] = test system: SOLNI (Solanum nigrum); details: for inhibition at 50 g/ha: Solanum nigrum, use rate 50 g ai/ha, read-out: observed % activity; for inhibition at 50 g/ha / observed activity in % destruction: pre-emergence
How it was run: as §1

[4] = test system: ALOMY (Alopecurus myosuroides); details: for observed activity in % destruction: pre-emergence
How it was run: as §1

[5] = test system: ABUTH (Abutilon theophrasti); details: for observed activity in % destruction: pre-emergence, 50 g ai/ha
How it was run: as §1

[6] = test system: AMARE (Amaranthus retroflexus); details: for inhibition at 12.5 g/ha: Amaranthus retroflexus, use rate 12.5 g ai/ha, read-out: observed % activity; for inhibition at 12.5 g/ha / observed activity in % destruction: pre-emergence
How it was run: as §1

[7] = test system: AMBEL (Ambrosia artemisifolia); details: for observed activity in % destruction: pre-emergence, 50 g ai/ha
How it was run: as §1

[8] = test system: LOLMU (Lolium multiflorum); details: for observed activity in % destruction: pre-emergence
How it was run: as §1

[9] = test system: SETFA (Setaria faberii); details: SETFA pre-emergence 25 g ai/ha
How it was run: as §1

[10] = test system: DIGSA (Digitaria sanguinalis); details: DIGSA pre-emergence 25 g ai/ha
How it was run: as §1

[11] = test system: SETVI (Setaria viridis); details: for observed activity in % destruction: pre-emergence
How it was run: as §1

[12] = test system: PANDI (Panicum dichotomiflorum); details: for observed activity in % destruction: pre-emergence
How it was run: as §1

[13] = test system: ERBVI; details: for observed activity in % destruction: pre-emergence, 25 g ai/ha
How it was run: as §1

[14] = ABUTH pre-emergence 6.25 g ai/ha
[15] = ABUTH pre-emergence 12.5 g ai/ha
[16] = SETVI pre-emergence 6.25 g ai/ha
[17] = SETVI pre-emergence 12.5 g ai/ha
[18] = PANDI pre-emergence 6.25 g ai/ha

Cn1nc(C(F)(F)F)c(CS(=O)(=O)C2=NOC(C)(C)C2)c1OC(F)F [pyroxasulfone, 3-[5-(difluoromethoxy)-1-methyl-3-(trifluoromethyl)pyrazol-4-ylmethylsulfonyl]-4,5-dihydro-5,5-dimethyl-1,2-oxazole]
70%: observed % destruction 20 DAT ([3]; SOLNI pre-emergence 12.5 g ai/ha) | observed activity in % destruction ([3]; 12.5 g ai/ha, 20 DAT) | observed activity in % destruction ([4]; 12.5 g ai/ha, 8 DAT) | observed % destruction 8 DAT [11, 17] | observed activity in % destruction ([11]; 12.5 g ai/ha, 8 DAT)
55%: observed % destruction 20 DAT ([13]; ERBVI pre-emergence 12.5 g ai/ha)
30%: observed activity in % destruction ([3]; 12.5 g ai/ha, 8 DAT) | observed activity in % destruction ([3]; 25 g ai/ha, 8 DAT) | observed % destruction 20 DAT [5, 14] | observed % destruction 8 DAT [11, 16] | observed activity in % destruction ([11]; 6.25 g ai/ha, 8 DAT)
35%: observed % destruction 20 DAT ([1]; PANMI pre-emergence 6.25 g ai/ha) | observed % destruction 20 DAT ([2]; CCHEC pre-emergence 6.25 g ai/ha)
95%: observed % destruction 20 DAT ([3]; SOLNI pre-emergence 50 g ai/ha) | inhibition at 50 g/ha ([3]; 480 h, 20 DAT) | observed activity in % destruction ([3]; 50 g ai/ha, 20 DAT) | observed activity in % destruction ([5]; 20 DAT) | observed % destruction 20 DAT ([6]; AMARE pre-emergence 12.5 g ai/ha) | inhibition at 12.5 g/ha ([6]; 480 h, 20 DAT) | observed activity in % destruction ([6]; 12.5 g ai/ha, 20 DAT) | observed % destruction 20 DAT [11, 17] | observed activity in % destruction ([11]; 12.5 g ai/ha, 20 DAT)
60%: observed % destruction 8 DAT ([13]; ERBVI pre-emergence 25 g ai/ha) | observed activity in % destruction ([13]; 8 DAT)
0%: observed % destruction 8 DAT [5, 14] | observed % destruction 8 DAT [5, 15] | observed % destruction 20 DAT ([7]; AMBEL pre-emergence 6.25 g ai/ha)
80%: observed activity in % destruction ([4]; 25 g ai/ha, 8 DAT) | observed % destruction 8 DAT ([6]; AMARE pre-emergence 25 g ai/ha) | inhibition at 12.5 g/ha ([6]; 192 h, 8 DAT) | observed activity in % destruction ([6]; 12.5 g ai/ha, 8 DAT) | observed activity in % destruction ([6]; 25 g ai/ha, 8 DAT) | observed % destruction 8 DAT ([11]; SETVI pre-emergence 25 g ai/ha) | observed activity in % destruction ([12]; 12.5 g ai/ha, 8 DAT)
100%: observed % destruction 20 DAT ([6]; AMARE pre-emergence 25 g ai/ha) | observed activity in % destruction ([6]; 25 g ai/ha, 20 DAT) | observed activity in % destruction ([6]; 50 g ai/ha, 20 DAT) | observed % destruction 20 DAT [10] | observed % destruction 20 DAT ([11]; SETVI pre-emergence 50 g ai/ha) | observed activity in % destruction ([11]; 50 g ai/ha, 20 DAT) | observed % destruction 20 DAT ([12]; PANDI pre-emergence 25 g ai/ha) | observed % destruction 20 DAT ([12]; PANDI pre-emergence 50 g ai/ha) | observed activity in % destruction ([12]; 12.5 g ai/ha, 20 DAT) | observed activity in % destruction ([12]; 50 g ai/ha, 20 DAT)
50%: observed % destruction 20 DAT ([3]; SOLNI pre-emergence 6.25 g ai/ha) | observed % destruction 8 DAT ([3]; SOLNI pre-emergence 50 g ai/ha) | inhibition at 50 g/ha ([3]; 192 h, 8 DAT) | observed activity in % destruction ([3]; 50 g ai/ha, 8 DAT) | observed % destruction 8 DAT ([7]; AMBEL pre-emergence 50 g ai/ha) | observed activity in % destruction ([7]; 8 DAT) | observed % destruction 20 DAT ([8]; LOLMU pre-emergence 6.25 g ai/ha) | observed activity in % destruction ([8]; 6.25 g ai/ha, 20 DAT) | observed activity in % destruction ([8]; 12.5 g ai/ha, 8 DAT)
40%: observed % destruction 20 DAT [5, 15] | observed activity in % destruction ([5]; 8 DAT) | observed % destruction 20 DAT ([7]; AMBEL pre-emergence 12.5 g ai/ha) | observed % destruction 20 DAT ([7]; AMBEL pre-emergence 25 g ai/ha) | observed activity in % destruction ([8]; 6.25 g ai/ha, 8 DAT) | observed % destruction 20 DAT ([13]; ERBVI pre-emergence 6.25 g ai/ha)
98%: observed % destruction 20 DAT ([4]; ALOMY pre-emergence 12.5 g ai/ha) | observed % destruction 20 DAT ([4]; ALOMY pre-emergence 25 g ai/ha) | observed % destruction 20 DAT ([4]; ALOMY pre-emergence 50 g ai/ha) | observed activity in % destruction ([4]; 12.5 g ai/ha, 20 DAT) | observed activity in % destruction ([4]; 25 g ai/ha, 20 DAT) | observed activity in % destruction ([4]; 50 g ai/ha, 20 DAT) | observed % destruction 20 DAT ([8]; LOLMU pre-emergence 50 g ai/ha) | observed activity in % destruction ([8]; 50 g ai/ha, 20 DAT) | observed % destruction 20 DAT [9] | observed % destruction 20 DAT ([11]; SETVI pre-emergence 25 g ai/ha)
90%: observed % destruction 20 DAT ([1]; PANMI pre-emergence 50 g ai/ha) | observed % destruction 20 DAT ([3]; SOLNI pre-emergence 25 g ai/ha) | observed activity in % destruction ([3]; 25 g ai/ha, 20 DAT) | observed % destruction 20 DAT ([4]; ALOMY pre-emergence 6.25 g ai/ha) | observed activity in % destruction ([6]; 50 g ai/ha, 8 DAT) | observed activity in % destruction ([8]; 50 g ai/ha, 8 DAT) | observed % destruction 8 DAT [10] | observed % destruction 8 DAT ([11]; SETVI pre-emergence 50 g ai/ha) | observed activity in % destruction ([11]; 50 g ai/ha, 8 DAT) | observed % destruction 20 DAT [12, 18] | observed % destruction 8 DAT ([12]; PANDI pre-emergence 25 g ai/ha) | observed % destruction 8 DAT ([12]; PANDI pre-emergence 50 g ai/ha) | observed activity in % destruction ([12]; 6.25 g ai/ha, 20 DAT) | observed activity in % destruction ([12]; 50 g ai/ha, 8 DAT)
85%: observed % destruction 20 DAT ([1]; PANMI pre-emergence 25 g ai/ha) | observed % destruction 8 DAT ([4]; ALOMY pre-emergence 50 g ai/ha) | observed activity in % destruction ([4]; 50 g ai/ha, 8 DAT) | observed % destruction 20 DAT ([7]; AMBEL pre-emergence 50 g ai/ha) | observed activity in % destruction ([7]; 20 DAT)
65%: observed % destruction 20 DAT ([2]; CCHEC pre-emergence 12.5 g ai/ha) | observed % destruction 20 DAT ([8]; LOLMU pre-emergence 12.5 g ai/ha) | observed activity in % destruction ([8]; 12.5 g ai/ha, 20 DAT) | observed % destruction 8 DAT [12, 18] | observed activity in % destruction ([12]; 6.25 g ai/ha, 8 DAT)
75%: observed % destruction 8 DAT ([1]; PANMI pre-emergence 50 g ai/ha) | observed % destruction 20 DAT [11, 16] | observed activity in % destruction ([11]; 6.25 g ai/ha, 20 DAT) | observed % destruction 20 DAT ([13]; ERBVI pre-emergence 25 g ai/ha) | observed activity in % destruction ([13]; 20 DAT)
